The numbers were not newly measured in patent US9763439B2, “Method of packaging food” (Universidad de Santiago de Chile, priority 2013, dated 2017), which cites them from elsewhere.

For the data set the following is noted: thermoforming process (±140° C.) does not affect its stability.

As for `C/C=C/C=C/C(=O)[O-].[K+]` [potassium sorbate], the temperature withstood entry was “up to 270 °C”.
